Test results as given in patent US20130156857A1, “Pharmaceutical Compositions Containing Diacerein” (TWI BIOTECHNOLOGY, INC., priority 2008, published 2013).
Converted amounts (≈) assume the structure as drawn. Where two headings read alike, the source gives them in different places.

Assays:
[1] = in vivo; cited from earlier work
[2] = Solubility and stability of diacerein at ambient temperature for one hour; assay type: physicochemical
Excerpt: (§1) The tables below indicate the solubility and stability of diacerein in buffer solutions with different pH values. […] The degradation products including rhein increase at a pH above 5. The poor stability of diacerein in the intestinal environment may result in incomplete absorption and cause poor and variable bioavailability. Moreover, one of the increased degradants in the intestinal environment, rhein, has been suspected to be a major factor in stimulating colon mucosa and results in diarrhea. Accordingly, methods to stabilize diacerein during gastro-intestinal absorption might improve its bioavailability as well as the side effect of diarrhea. The stabilization methods for use with diacerein may include the addition of acidifying or buffering agents or complexation with cyclodextrins.

[3] = cited from earlier work
[4] = cited from earlier work; remark: listed apart in the source
[5] = Solubility and stability pH profile of diacerein at ambient temperature for 48 hours; assay type: physicochemical; conditions: for Proportion of Diacerein and its degradants: Diacerein / solubility at 48 h: 48 hours; for solubility at 48 h: thermodynamic from solid, read-out: Total solubility
Excerpt: as §1

[6] = cited from earlier work; remark: listed apart in the source

CC(=O)Oc1cccc2c1C(=O)c1c(OC(C)=O)cc(C(=O)O)cc1C2=O [Diacerein, 4,5-bis(acetyloxy)-9,10-dioxo-2-anthracene carboxylic acid]
conversion before reaching the systemic circulation [1]: entirely converted into rhein | Proportion of Diacerein and its degradants: Diacerein ([2]; final pH 6.55*): 90% | Proportion of Diacerein and its degradants: Diacerein ([2]; final pH 6.70*): 83% | diarrhea or soft stools occurred in the patients ([3]; 3-year clinical study, diacerein twice a day with meals): up to 30% | severity of diarrhea ([3]; occurs within the first two weeks of treatment): mild-to-moderate | solubility in water [4]: practically insoluble | Proportion of Diacerein and its degradants: Diacerein ([5]; 0.01N HCl, final pH 1.98, ambient temperature): 100% | Proportion of Diacerein and its degradants: Diacerein ([5]; 50 mM NaH2PO4, final pH 3.03, ambient temperature): 100% | Proportion of Diacerein and its degradants: Diacerein ([5]; 50 mM NaH2PO4, final pH 4.17, ambient temperature): 100% | Proportion of Diacerein and its degradants: Diacerein ([5]; 50 mM NaH2PO4, final pH 5.04, ambient temperature): 60% | Proportion of Diacerein and its degradants: Diacerein ([5]; 50 mM NaH2PO4, final pH 5.97, ambient temperature): 77% | Proportion of Diacerein and its degradants: Diacerein ([5]; 50 mM NaH2PO4, final pH 6.55, ambient temperature): 45% | Proportion of Diacerein and its degradants: Diacerein ([5]; 50 mM NaH2PO4, final pH 6.70, ambient temperature): 34% | solubility at 48 h ([5]; 50 mM NaH2PO4 buffer, aqueous buffer, 50 mM NaH2PO4, final pH 3.03, ambient temperature): 0.35 µg/mL (≈ 0.95 µM) | solubility at 48 h ([5]; 50 mM NaH2PO4 buffer, aqueous buffer, 50 mM NaH2PO4, final pH 4.17, ambient temperature): 0.43 µg/mL (≈ 1.17 µM) | Proportion of Diacerein and its degradants: Diacerein ([5]; 0.1N HCl, final pH 1.17, ambient temperature): 100% | Proportion of Diacerein and its degradants: Diacerein ([5]; Water, final pH 5.79, ambient temperature): 90% | solubility at 48 h ([5]; buffer solution (0.01N HCl), simulated gastric fluid, 0.01N HCl, final pH 1.98, ambient temperature): 0.15 µg/mL (≈ 0.407 µM) | solubility in buffer solution ([5]; pH below 4.17): relatively low | stability in buffer solution ([5]; pH below 4.17): stable | solubility at 48 h ([5]; simulated gastric fluid, 0.1N HCl, final pH 1.17, ambient temperature): 0.17 µg/mL (≈ 0.462 µM) | Oral bioavailability [6]: 35-56% | bioavailability with feeding ([6]; oral, feeding): 43-70%

O=C(O)c1cc(O)c2c(c1)C(=O)c1cccc(O)c1C2=O [Rhein]
conjugated in the liver to rhein glucuronide [1]: 60% | conjugated in the liver to rhein sulfate [1]: 20% | eliminated by the renal route [1]: 20%
